The supplement of paper PMC10307832

Legend:
Assay in all cases: relative viability (nuclei count vs DMSO), 5 days (fraction); higher = more cells survive
[1] = compound: O=C(Nc1cccc(C(F)(F)F)c1)Nc1cc(S(=O)(=O)NC2CC2)ccc1-c1ccsc1 [AGI-6780]
Summary of the method: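 In 1536-well plates, lung cancer cell lines rested overnight at 37 °C before five library-drug doses (not always all listed), √10 apart, were pinned onto vehicle-anchored plates. Nuclei were counted with MetaXpress from 4× Hoechst images taken after 5 days without medium change. Viability compares treated-well with vehicle-well nuclei as a median over plates, and plates needed control CV below 25% plus at least one doubling to pass.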

[2] = compound: O=C(Nc1cccc(C(F)(F)F)c1)Nc1cc(S(=O)(=O)NC2CC2)ccc1-c1ccsc1 [AGI-6780] + Cc1cc(Nc2cc(N3CCN(C)CC3)nc(Sc3ccc(NC(=O)C4CC4)cc3)n2)n[nH]1 [Tozasertib] (partner 0.1 µM)
Summary of the method: (§1)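 Lung cancer cell lines in 1536-well plates were dosed by pin tool the day after seeding, either with one drug alone or with a fixed anchor-drug dose plus five library-drug doses (not always all listed) in √10 steps. After 5 days, cells were fixed and their nuclei stained in one step (final 0.05% Triton X-100, 1% formaldehyde, 1 ug/ml Hoechst), then counted on 4× images. Relative viability is the nuclei count in treated wells divided by that in vehicle wells. Values are medians of duplicate plates.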

[3] = compound: O=C(Nc1cccc(C(F)(F)F)c1)Nc1cc(S(=O)(=O)NC2CC2)ccc1-c1ccsc1 [AGI-6780] + COc1cc2c(Oc3ccc(NC(=O)C4(C(=O)Nc5ccc(F)cc5)CC4)cc3F)ccnc2cc1OCCCN1CCOCC1 [Foretinib] (partner 0.25 µM)
Summary of the method: as §1

[4] = compound: O=C(Nc1cccc(C(F)(F)F)c1)Nc1cc(S(=O)(=O)NC2CC2)ccc1-c1ccsc1 [AGI-6780] + O=C(CCCCCCC(=O)Nc1ccccc1)NO [Vorinostat] (partner 1 µM)
Summary of the method: as §1

[5] = compound: O=C(Nc1cccc(C(F)(F)F)c1)Nc1cc(S(=O)(=O)NC2CC2)ccc1-c1ccsc1 [AGI-6780] + NC(=O)Nc1cc(-c2cccc(F)c2)sc1C(=O)N[C@H]1CCCNC1 [AZD7762] (partner 0.2 µM)
Summary of the method: as §1

[6] = compound: O=C(Nc1cccc(C(F)(F)F)c1)Nc1cc(S(=O)(=O)NC2CC2)ccc1-c1ccsc1 [AGI-6780] + Cc1nc(Nc2ncc(C(=O)Nc3c(C)cccc3Cl)s2)cc(N2CCN(CCO)CC2)n1 [Dasatinib] (partner 0.075 µM)
Summary of the method: as §1

[7] = compound: O=C(Nc1cccc(C(F)(F)F)c1)Nc1cc(S(=O)(=O)NC2CC2)ccc1-c1ccsc1 [AGI-6780] + CC(=O)Nc1cccc(-n2c(=O)n(C3CC3)c(=O)c3c(Nc4ccc(I)cc4F)n(C)c(=O)c(C)c32)c1 [Trametinib] (partner 0.02 µM)
Summary of the method: as §1

[8] = compound: O=C(Nc1cccc(C(F)(F)F)c1)Nc1cc(S(=O)(=O)NC2CC2)ccc1-c1ccsc1 [AGI-6780] + CCNC(=O)c1noc(-c2cc(C(C)C)c(O)cc2O)c1-c1ccc(CN2CCOCC2)cc1 [Luminespib] (partner 0.01 µM)
Summary of the method: as §1

[9] = compound: O=C(Nc1cccc(C(F)(F)F)c1)Nc1cc(S(=O)(=O)NC2CC2)ccc1-c1ccsc1 [AGI-6780] + Nc1nc2[nH]cc(CCc3ccc(C(=O)N[C@@H](CCC(=O)O)C(=O)O)cc3)c2c(=O)[nH]1 [Pemetrexed] (partner 0.2 µM)
Summary of the method: as §1

[10] = compound: O=C(Nc1cccc(C(F)(F)F)c1)Nc1cc(S(=O)(=O)NC2CC2)ccc1-c1ccsc1 [AGI-6780] + O=C(c1cc(Cc2n[nH]c(=O)c3ccccc23)ccc1F)N1CCN(C(=O)C2CC2)CC1 [Olaparib] (partner 8 µM)
Summary of the method: as §1

[11] = compound: O=C(Nc1cccc(C(F)(F)F)c1)Nc1cc(S(=O)(=O)NC2CC2)ccc1-c1ccsc1 [AGI-6780] + COc1cccc2cc(-c3nc([C@H]4CC[C@H](C(=O)O)CC4)n4ncnc(N)c34)[nH]c12 [OSI-027] (partner 0.5 µM)
Summary of the method: as §1

[12] = compound: O=C(Nc1cccc(C(F)(F)F)c1)Nc1cc(S(=O)(=O)NC2CC2)ccc1-c1ccsc1 [AGI-6780] + N=C(N)NC(=N)NCCc1ccccc1 [Phenformin] (partner 250 µM)
Summary of the method: as §1

[13] = compound: O=C(Nc1cccc(C(F)(F)F)c1)Nc1cc(S(=O)(=O)NC2CC2)ccc1-c1ccsc1 [AGI-6780] + Nc1ncn([C@H]2C[C@H](O)[C@@H](CO)O2)c(=O)n1 [Decitabine] (partner 2 µM)
Summary of the method: as §1

[14] = compound: O=C(Nc1cccc(C(F)(F)F)c1)Nc1cc(S(=O)(=O)NC2CC2)ccc1-c1ccsc1 [AGI-6780] + CC(=O)c1c(C)c2cnc(Nc3ccc(N4CCNCC4)cn3)nc2n(C2CCCC2)c1=O [Palbociclib] (partner 0.5 µM)
Summary of the method: as §1

## SW 900
[1]; 0.08 µM
  relative viability: 0.858
[1]; 0.253 µM
  relative viability: 0.868
[1]; 0.8 µM
  relative viability: 1.08
[1]; 2.53 µM
  relative viability: 0.901
[1]; 8 µM
  relative viability: 0.935
[2]; first compound 0.08 µM
  relative viability: 0.526
[2]; first compound 0.253 µM
  relative viability: 0.52
[2]; first compound 0.8 µM
  relative viability: 0.644
[2]; first compound 2.53 µM
  relative viability: 0.473
[2]; first compound 8 µM
  relative viability: 0.512
[3]; first compound 0.08 µM
  relative viability: 0.953
[3]; first compound 0.253 µM
  relative viability: 0.763
[3]; first compound 0.8 µM
  relative viability: 1.03
[3]; first compound 2.53 µM
  relative viability: 0.81
[3]; first compound 8 µM
  relative viability: 0.917
[4]; first compound 0.08 µM
  relative viability: 0.485
[4]; first compound 0.253 µM
  relative viability: 0.484
[4]; first compound 0.8 µM
  relative viability: 0.707
[4]; first compound 2.53 µM
  relative viability: 0.548
[4]; first compound 8 µM
  relative viability: 0.586
[5]; first compound 0.08 µM
  relative viability: 0.657
[5]; first compound 0.253 µM
  relative viability: 0.676
[5]; first compound 0.8 µM
  relative viability: 0.811
[5]; first compound 2.53 µM
  relative viability: 0.557
[5]; first compound 8 µM
  relative viability: 0.634
[6]; first compound 0.08 µM
  relative viability: 0.542
[6]; first compound 0.253 µM
  relative viability: 0.675
[6]; first compound 0.8 µM
  relative viability: 0.555
[6]; first compound 2.53 µM
  relative viability: 0.587
[6]; first compound 8 µM
  relative viability: 0.571
[7]; first compound 0.08 µM
  relative viability: 1.01
[7]; first compound 0.253 µM
  relative viability: 0.832
[7]; first compound 0.8 µM
  relative viability: 0.915
[7]; first compound 2.53 µM
  relative viability: 0.688
[7]; first compound 8 µM
  relative viability: 1.18
[8]; first compound 0.08 µM
  relative viability: 0.167
[8]; first compound 0.253 µM
  relative viability: 0.17
[8]; first compound 0.8 µM
  relative viability: 0.163
[8]; first compound 2.53 µM
  relative viability: 0.185
[8]; first compound 8 µM
  relative viability: 0.176
[9]; first compound 0.08 µM
  relative viability: 0.461
[9]; first compound 0.253 µM
  relative viability: 0.484
[9]; first compound 0.8 µM
  relative viability: 0.457
[9]; first compound 2.53 µM
  relative viability: 0.524
[9]; first compound 8 µM
  relative viability: 0.469
[10]; first compound 0.08 µM
  relative viability: 0.741
[10]; first compound 0.253 µM
  relative viability: 0.826
[10]; first compound 0.8 µM
  relative viability: 0.923
[10]; first compound 2.53 µM
  relative viability: 0.878
[10]; first compound 8 µM
  relative viability: 0.803
[11]; first compound 0.08 µM
  relative viability: 0.649
[11]; first compound 0.253 µM
  relative viability: 0.684
[11]; first compound 0.8 µM
  relative viability: 0.811
[11]; first compound 2.53 µM
  relative viability: 0.415
[11]; first compound 8 µM
  relative viability: 0.741
[12]; first compound 0.08 µM
  relative viability: 0.547
[12]; first compound 0.253 µM
  relative viability: 0.737
[12]; first compound 0.8 µM
  relative viability: 0.673
[12]; first compound 2.53 µM
  relative viability: 0.597
[12]; first compound 8 µM
  relative viability: 0.809
[13]; first compound 0.08 µM
  relative viability: 0.454
[13]; first compound 0.253 µM
  relative viability: 0.454
[13]; first compound 0.8 µM
  relative viability: 0.386
[13]; first compound 2.53 µM
  relative viability: 0.413
[13]; first compound 8 µM
  relative viability: 0.445
[14]; first compound 0.08 µM
  relative viability: 0.629
[14]; first compound 0.253 µM
  relative viability: 0.527
[14]; first compound 0.8 µM
  relative viability: 0.496
[14]; first compound 2.53 µM
  relative viability: 0.566
[14]; first compound 8 µM
  relative viability: 0.552
